Results from PMC12390941, “Ubiquitin-specific protease 7-mediated stabilization of discoidin domain receptor 1 drives progression of TP53-Mutant cancers” (The Journal of Biological Chemistry, 2025).
Like-named read-outs stand apart in the source and are kept apart here.

Legend:
USP7 = USP7 (Homo sapiens, UniProt Q93009); assay: biochemical
USP2 = USP2 (Homo sapiens, UniProt O75604); assay: selectivity panel of […] purified DUBs, ubiquitin-AMC substrate; format: biochemical
USP11 = USP11 (Homo sapiens, UniProt P51784); assay: selectivity panel of […] purified DUBs, ubiquitin-AMC substrate; ABPP DUBome; format: biochemical
Chain of USP11 (P51784 whole entry): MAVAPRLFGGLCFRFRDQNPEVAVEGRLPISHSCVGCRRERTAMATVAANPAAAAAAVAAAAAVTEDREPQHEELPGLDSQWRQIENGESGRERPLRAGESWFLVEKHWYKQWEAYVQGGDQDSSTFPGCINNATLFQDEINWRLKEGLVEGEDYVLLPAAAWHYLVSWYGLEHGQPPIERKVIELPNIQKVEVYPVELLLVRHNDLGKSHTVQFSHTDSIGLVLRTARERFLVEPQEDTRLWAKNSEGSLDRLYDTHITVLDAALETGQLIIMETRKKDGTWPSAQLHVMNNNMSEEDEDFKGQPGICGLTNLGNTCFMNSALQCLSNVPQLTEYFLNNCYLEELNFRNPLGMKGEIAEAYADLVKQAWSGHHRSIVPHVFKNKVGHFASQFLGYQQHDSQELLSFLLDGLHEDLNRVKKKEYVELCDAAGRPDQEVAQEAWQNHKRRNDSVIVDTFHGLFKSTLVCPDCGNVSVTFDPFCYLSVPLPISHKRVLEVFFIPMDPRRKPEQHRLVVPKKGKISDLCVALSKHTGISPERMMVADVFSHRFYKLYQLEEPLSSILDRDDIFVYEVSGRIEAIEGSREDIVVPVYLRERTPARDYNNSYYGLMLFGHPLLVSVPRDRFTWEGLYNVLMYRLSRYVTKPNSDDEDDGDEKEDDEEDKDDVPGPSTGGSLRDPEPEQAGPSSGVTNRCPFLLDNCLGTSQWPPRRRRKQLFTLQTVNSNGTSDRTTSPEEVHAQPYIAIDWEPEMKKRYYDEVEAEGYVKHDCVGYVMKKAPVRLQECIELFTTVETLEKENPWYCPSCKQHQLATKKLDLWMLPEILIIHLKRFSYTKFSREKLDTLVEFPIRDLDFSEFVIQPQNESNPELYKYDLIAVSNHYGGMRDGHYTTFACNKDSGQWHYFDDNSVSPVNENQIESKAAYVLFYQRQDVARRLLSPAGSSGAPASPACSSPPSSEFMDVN

USP1 = biological target: T1, USP1 (Homo sapiens, UniProt O94782); assay: as above; format: biochemical
T1 sequence (O94782 1-785): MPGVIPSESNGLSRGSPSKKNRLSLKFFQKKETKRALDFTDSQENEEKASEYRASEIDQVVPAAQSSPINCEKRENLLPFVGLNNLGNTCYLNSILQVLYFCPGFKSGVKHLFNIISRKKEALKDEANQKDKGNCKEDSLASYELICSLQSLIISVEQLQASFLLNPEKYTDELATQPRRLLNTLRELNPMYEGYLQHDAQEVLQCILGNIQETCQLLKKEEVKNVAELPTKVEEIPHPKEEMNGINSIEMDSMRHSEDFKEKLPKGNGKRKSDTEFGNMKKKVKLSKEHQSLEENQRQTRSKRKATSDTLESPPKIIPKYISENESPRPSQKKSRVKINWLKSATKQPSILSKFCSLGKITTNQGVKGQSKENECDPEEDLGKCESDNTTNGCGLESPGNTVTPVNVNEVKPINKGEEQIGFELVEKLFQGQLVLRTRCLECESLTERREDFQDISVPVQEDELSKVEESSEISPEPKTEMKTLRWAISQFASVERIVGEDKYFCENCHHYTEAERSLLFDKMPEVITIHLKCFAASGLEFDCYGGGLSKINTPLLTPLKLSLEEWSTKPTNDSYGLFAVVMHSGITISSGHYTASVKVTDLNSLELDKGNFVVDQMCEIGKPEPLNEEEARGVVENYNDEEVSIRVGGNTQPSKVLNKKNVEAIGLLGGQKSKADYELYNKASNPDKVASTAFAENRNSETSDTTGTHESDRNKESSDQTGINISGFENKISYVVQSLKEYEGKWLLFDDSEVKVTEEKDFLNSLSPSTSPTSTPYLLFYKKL

Chain of USP7 (Q93009 whole entry): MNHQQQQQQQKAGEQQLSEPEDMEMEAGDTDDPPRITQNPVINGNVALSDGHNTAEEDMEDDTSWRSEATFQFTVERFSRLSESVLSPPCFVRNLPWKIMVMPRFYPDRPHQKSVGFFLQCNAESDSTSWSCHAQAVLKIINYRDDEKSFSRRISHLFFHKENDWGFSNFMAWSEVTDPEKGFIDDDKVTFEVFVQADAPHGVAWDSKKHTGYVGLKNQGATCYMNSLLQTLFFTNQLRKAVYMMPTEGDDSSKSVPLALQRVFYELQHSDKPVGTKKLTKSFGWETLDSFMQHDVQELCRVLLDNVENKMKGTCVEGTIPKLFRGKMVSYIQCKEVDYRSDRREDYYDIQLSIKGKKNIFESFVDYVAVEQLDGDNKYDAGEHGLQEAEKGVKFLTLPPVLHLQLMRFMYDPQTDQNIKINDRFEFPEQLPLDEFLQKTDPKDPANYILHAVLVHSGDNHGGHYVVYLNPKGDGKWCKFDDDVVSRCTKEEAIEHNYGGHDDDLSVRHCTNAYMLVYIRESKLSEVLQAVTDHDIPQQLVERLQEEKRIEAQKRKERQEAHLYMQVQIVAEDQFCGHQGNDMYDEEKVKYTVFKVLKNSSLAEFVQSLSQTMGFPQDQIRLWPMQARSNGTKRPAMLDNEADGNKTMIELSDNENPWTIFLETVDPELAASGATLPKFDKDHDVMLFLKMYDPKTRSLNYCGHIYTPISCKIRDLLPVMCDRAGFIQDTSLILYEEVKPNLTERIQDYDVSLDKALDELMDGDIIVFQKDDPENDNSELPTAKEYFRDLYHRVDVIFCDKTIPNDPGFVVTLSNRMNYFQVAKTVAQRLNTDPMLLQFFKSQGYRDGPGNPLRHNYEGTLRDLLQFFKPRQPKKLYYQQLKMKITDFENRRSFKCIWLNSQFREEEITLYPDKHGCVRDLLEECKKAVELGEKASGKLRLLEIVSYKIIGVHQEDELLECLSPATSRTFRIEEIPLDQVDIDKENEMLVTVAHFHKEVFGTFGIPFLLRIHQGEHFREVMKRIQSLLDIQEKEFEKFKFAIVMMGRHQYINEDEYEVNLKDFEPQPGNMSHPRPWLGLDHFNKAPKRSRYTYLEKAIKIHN
Chain of USP2 (O75604 whole entry): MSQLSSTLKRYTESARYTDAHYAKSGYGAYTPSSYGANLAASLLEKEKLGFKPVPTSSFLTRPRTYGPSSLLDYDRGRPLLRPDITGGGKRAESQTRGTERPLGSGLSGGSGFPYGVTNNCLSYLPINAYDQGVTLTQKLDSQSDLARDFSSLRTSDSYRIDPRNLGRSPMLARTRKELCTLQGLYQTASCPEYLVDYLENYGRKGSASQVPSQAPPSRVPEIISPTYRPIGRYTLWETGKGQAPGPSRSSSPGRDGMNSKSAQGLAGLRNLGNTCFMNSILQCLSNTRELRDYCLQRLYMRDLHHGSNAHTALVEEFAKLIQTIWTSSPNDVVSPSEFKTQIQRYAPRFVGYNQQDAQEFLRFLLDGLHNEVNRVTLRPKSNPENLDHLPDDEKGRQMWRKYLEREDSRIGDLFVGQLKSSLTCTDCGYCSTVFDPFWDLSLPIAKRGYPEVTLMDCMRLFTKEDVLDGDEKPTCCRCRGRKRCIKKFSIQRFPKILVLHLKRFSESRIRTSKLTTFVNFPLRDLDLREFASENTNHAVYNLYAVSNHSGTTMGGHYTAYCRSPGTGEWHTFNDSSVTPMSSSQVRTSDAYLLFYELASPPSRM

Compound | IC50 (USP7) | selectivity panel of 41 purified DUBs, ubiquitin-AMC substrate (USP2) | selectivity panel of 41 purified DUBs, ubiquitin-AMC substrate; ABPP DUBome (USP11) | IC50 (USP7; read-out: IC50) | selectivity panel of 41 purified DUBs, ubiquitin-AMC substrate; ABPP DUBome (USP1)
O=C(C[C@@H](C(F)F)n1ccc(F)n1)N1CCC(O)(Cn2cnc3c(cnn3-c3ccc(F)cc3)c2=O)CC1 [FT671] | 286 nM | – | – | – | –
Cc1ccc(/C=C2\CNC/C(=C\c3ccc(C)cc3)C2=O)cc1 [NSC632839] | – | This screening identified USP7, USP11, USP2, and USP1 as the key targets. | This screening identified USP7, USP11, USP2, and USP1 as the key targets. | 3820 nM | This screening identified USP7, USP11, USP2, and USP1 as the key targets.
